Results from patent publication US10316028B2, “Orexin receptor antagonists” (Heptares Therapeutics Limited, priority 2012, dated 2019).
Where two headings read alike, the source gives them in different places.

Tests used:
human Orexin-2 receptor = target: T1, human Orexin-2 receptor (Homo sapiens, UniProt O43614); assay: 3H-EMPA radioligand binding assay; conditions: 3H-EMPA displacement, membranes of HEK293 cells transfected with human Orexin-2 receptor; KI by Cheng-Prussoff; read-out: OX2 pKi ave (converted)
T1 construct: expressed in transfected cells; host or cells: HEK293 cells (transient transfection, Genejuice); membranes
T1 sequence (O43614 1-444): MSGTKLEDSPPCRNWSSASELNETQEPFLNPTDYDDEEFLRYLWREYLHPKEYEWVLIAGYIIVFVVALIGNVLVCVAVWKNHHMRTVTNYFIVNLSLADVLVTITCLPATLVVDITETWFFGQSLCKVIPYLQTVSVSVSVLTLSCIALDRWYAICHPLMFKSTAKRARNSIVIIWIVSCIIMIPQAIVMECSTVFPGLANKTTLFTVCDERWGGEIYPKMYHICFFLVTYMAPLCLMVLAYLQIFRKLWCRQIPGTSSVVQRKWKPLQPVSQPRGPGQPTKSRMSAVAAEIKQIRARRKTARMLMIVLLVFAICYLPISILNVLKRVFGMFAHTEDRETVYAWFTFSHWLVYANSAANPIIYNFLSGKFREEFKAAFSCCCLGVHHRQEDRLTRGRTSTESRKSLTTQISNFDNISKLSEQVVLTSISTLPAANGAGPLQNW
In short: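 Membranes from HEK293 cells transiently transfected with human orexin-2 receptor cDNA, assayed with [3H]EMPA. Bound ligand collected on PEI-treated GF/B filters and counted by scintillation; IC50 from inhibition curves, Ki by Cheng-Prusoff.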

[1] = target: T2, cortical orexin-2 receptors (Rattus norvegicus, UniProt P56719); assay: Ex vivo orexin-2 receptor occupancy; assay type: in vivo; conditions: for ED50: po
T2 construct: from tissue; host or cells: rat brain cortex sections (Sprague Dawley)
T2 sequence (P56719 1-460): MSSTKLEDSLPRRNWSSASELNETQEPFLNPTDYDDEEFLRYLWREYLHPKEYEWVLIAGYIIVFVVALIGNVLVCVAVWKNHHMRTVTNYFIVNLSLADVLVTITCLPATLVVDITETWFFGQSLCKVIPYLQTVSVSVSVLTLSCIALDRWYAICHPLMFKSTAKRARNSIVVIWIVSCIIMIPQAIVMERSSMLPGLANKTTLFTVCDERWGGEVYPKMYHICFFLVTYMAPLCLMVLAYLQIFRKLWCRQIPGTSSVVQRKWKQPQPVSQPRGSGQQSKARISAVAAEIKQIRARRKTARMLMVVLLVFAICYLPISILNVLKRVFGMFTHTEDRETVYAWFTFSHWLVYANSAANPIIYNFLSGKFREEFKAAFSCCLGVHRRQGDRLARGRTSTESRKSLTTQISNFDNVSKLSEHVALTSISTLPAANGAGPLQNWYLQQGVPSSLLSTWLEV
Protocol: Ex Vivo Orexin-2 Receptor Occupancy
Male Sprague Dawley rats were dosed orally with either vehicle, example 145, (0.3-10 mg/kg po) or example 100, (1 mg/kg, po). Vehicle for example 145 was 90% PEG400/10% Tween-80; for example 100 10% DMAC+10% Solutol+80% (10% HPβCD in water). 1 h post-dose, animals were sacrificed and brains removed. A coronal block containing the cortex was rapidly frozen in isopentane for sectioning and autoradiography. 20 μm thick sections were mounted onto slides and incubated with [^3H]EMPA (total binding) or [^3H]EMPA and 1 μM TCS OX2 29 (non-specific binding) for 20 min at rt. Binding was terminated by aspiration and washing with ice-cold assay buffer and allowed to air dry. Levels of bound radioactivity in the sections were determined using a beta imager over a 16 h period. Occupancy was determined as mean specific binding with the vehicle treated control taken as 100%.

rat CT18 sleep model = assay: Rat telemetered sleep study (rat CT18 sleep model); assay type: in vivo; conditions: male CD rats
Protocol: Rat Telemetered Sleep Study
Example 100 was assessed for activity in a rat CT18 sleep model. Adult male CD rats (250-300 g) were implanted with telemetric probes fixed to the skull to record cortical electroencephalogram (EEG), and with telemetric probes fixed to the skeletal muscles of the neck to record electromyogram (neck EMG), and allowed to recover for 3 weeks to re-establish normal sleep patterns. Rats were administered with example 100 (3, 10 and 30 mg/kg, po) or vehicle (80% v/v PEG400, 20% v/v Cremophor EL, 2 ml/kg) at Circadian Time (CT) 18, six hours after lights off. EEG and neck EMG traces were recorded for 5 hours after treatment and analysed to determine time spent awake and in NREM sleep and REM sleep.

preclinical sleep models = conditions: in vivo; cited from earlier work
[2] = system: patients with primary insomnia; conditions: Phase II; cited from earlier work
[3] = system: primary insomnia patients; conditions: Phase IIb study; cited from earlier work
[4] = 3 mg/kg po at CT18, ANOVA over 3 hours post-treatment

COc1cc(N2C(=O)N(Cc3c(F)cc(F)cc3F)c3ncccc3S2(=O)=O)cnc1OC [Example 100, 2-(5,6-Dimethoxypyridin-3-yl)-4-(2,4,6-trifluorobenzyl)-2H-pyrido[2,3-e][1,2,4]thiadiazin-3(4H)-one 1,1-dioxide]
Ki (human Orexin-2 receptor): 2.45 nM | ED50 ([1]; rat, inferred from 57% occupancy at 1 mg/kg, read-out: ED50 value of orexin-2 receptor occupancy (suggested from single dose)): < 1 mg/kg | receptor occupancy at 1 mg/kg ([1]; rat, male Sprague Dawley rats, 1 mg/kg po, 1 h post-dose): 57% | NREM sleep (rat CT18 sleep model; [4]): statistically significant increases | REM sleep (rat CT18 sleep model; [4]): statistically significant increases | time spent awake (rat CT18 sleep model; [4]): statistically significant decrease

COc1cc(N2C(=O)N(Cc3c(F)cc(F)cc3F)c3ccccc3S2(=O)=O)cnc1OC [Example 145, 2-(5,6-Dimethoxypyridin-3-yl)-4-(2,4,6-trifluorobenzyl)-2H-1,2,4-benzothiadiazin-3(4H)-one 1,1-dioxide]
Ki (human Orexin-2 receptor): 4.68 nM | occupancy of cortical orexin-2 receptors, dose dependence ([1]; male Sprague Dawley rats, 0.3-10 mg/kg po, 1 h post-dose): dose dependent manner | ED50 ([1]; rat, male Sprague Dawley rats, 0.3-10 mg/kg, 1 h post-dose, estimated, read-out: ED50 of cortical orexin-2 receptor occupancy): 5.8 mg/kg

Cc1ccc(-c2ncccn2)c(C(=O)N2C[C@H](COc3ccc(F)cn3)CC[C@H]2C)c1 [MK-6096]
efficacy in preclinical sleep models (preclinical sleep models): shows efficacy

CNC(=O)[C@@H](c1ccccc1)N1CCc2cc(OC)c(OC)cc2[C@@H]1CCc1ccc(C(F)(F)F)cc1 [almorexant]
sleep efficiency [2]: dose-dependently increased

Cc1ccc(-n2nccn2)c(C(=O)N2CCN(c3nc4cc(Cl)ccc4o3)CC[C@H]2C)c1 [suvorexant]
sleep efficiency [3]: increased

Cc1ccc(-c2nc3ccc(C)cn3c2CC(=O)N(C)C)cc1 [zolpidem, reference compound]
NREM latency (rat CT18 sleep model; positive control, CT18): decrease | NREM sleep (rat CT18 sleep model; positive control, CT18): increase | time spent awake (rat CT18 sleep model; positive control, CT18): decrease
